Patent US9592211B2, “Compositions for improvement of brain function” (GRESPO AB, priority 2012, dated 2017)
Entries after “also recorded” stand apart in the source; their conditions may differ.

Assays:
[1] = test system: nestin-positive neurons in hippocampal CA1 area; test: Induction of hippocampal neurogenesis (nestin immunohistochemistry), Example 1; format: in vivo, Mongolian gerbils; details: old gerbils, 6 month feeding in chow, compared to age matched controls (FIG. 1)
Protocol: After the course of treatment as specified under Materials and Methods, the animals were sacrificed and the brains were analysed histologically to quantitate hippocampal neurogenesis.
Nestin is a marker for immature neurons. Nestin positive cells were found in the hippocampal layer of the pyramidal neurons. […] In some cells long processes that seem to be dendrites extended into deeper layers of the hippocampus, and these processes were nestin positive as well. In all of the CA fields of the hippocampus (CA1-CA3) these cells were structurally similar to pyramidal cells. The structural similarities between nestin positive cells and neurons allow regarding this type of cells as newly generated neurons.
In Example 1. the animals were fed Labofeed B standard chow (from Labofeed company; Andrzej Morawski Feed Production Plant, Kcynia near. Bydgoszcz, Poland) supplemented with test compounds as specified in table 1.
The lipase, protease and amylase were obtained as capsules containing 30,000 USP units/capsule of lipase, 20,000 USP units/capsule of protease, and 3,000 USP units/capsule of amylase) prepared as shown in Table 2. […]
Samplings for immunohistochemistry (one hemisphere of each animal) were postfixed overnight in the same fixative at +4° C. […] Then slices were washed out, placed on histological slides and mounted with Fluorescence Mounting Media (Dako, Denmark). […]

[2] = test system: Mongolian gerbils; test: T-maze spontaneous alternation, cognitive function/memory, Example 2; format: in vivo; details: old gerbils, feeding in chow, tested once (FIG. 2)
Source text: During the course of the treatment, the animals were subjected to T-maze test measuring cognitive function and/or memory as specified under Materials and Methods.
For long-lasting feeding (during 6 month) 75 old male Mongolian gerbils, randomly selected, were used. Those selected were approximately 1.5 years of age at start of the experiment with the mean body weight of 88.0±6 g and 2 years of age at experiment finish.
Subjects were first placed in the start arm of the T Maze. Upon leaving the start arm, subjects chose between entering either the left or the right goal arm. […] The percentage of alternation (number of turns in each goal arm) and total trial duration were recorded.

[3] = test system: synaptic terminals in hippocampal CA1 zone; test: Synaptic morphology alterations (electron microscopy), Example 4; format: in vivo, Mongolian gerbils
Source text: In the middle portion of the CA1 stratum radiatum analyzed in the study, the great majority of synaptic inputs are excitatory and they preferentially terminate on the […], Taking into consideration these aspects, we could focus our analyses on the pool of excitatory CA1 spine synapses.
After perfusion the brains were isolated and separated on two hemispheres.
The hippocampus from another hemisphere of each animal was isolated and cut in 400-μm-thick transverse slices by a chopper (McIlwain tissue chopper, Great Britain). […] Tissue slices were then dehydrated in an ascending series of ethanol followed by dry acetone and embedded in EPON resin according to official protocol. The sections were produced by ultramicrotome LKB-8800. Toluidine blue-stained semi-thin (1 μm) sections of hippocampus were used to localize hippocampal CA1 area. For electron microscopy, ultra-thin sections (70 nm) from the middle portion of CA1 stratum pyramidale and stratum radiatum were stained with uranyl acetate and lead citrate.
The images were taken with JEM-100CX (Jeol, Japan) transmission electron microscope at magnification of ×10 000.
Perforated synapse was defined as a synapse with discontinuous PSD. The synapses with more than one spine contacting the same presynaptic terminal were classified as multiple spine boutons (MSB).
For the analysis of SV's distribution, x- and y-coordinates of SV profile centers and points tracing the active zone of a synapse were marked with UTHSCSA ImageTool software (version 3, University of Texas, San Antonio, Tex.; ftp://maxrad6.uthscsa.edu) on digitized micrographs, using the point tool.
AZD and NND quantities were pooled together per group. […]
Estimations of synapse density were carried out on single photos by counting all asymmetric spine synapses (determined by the presence of a spine head with prominent PSD and docked synaptic vesicles (SV) in the active zone of a presynaptic terminal) on the micrograph surface limited by the counting frame (36 mkm^2 test area) followed by calculation of the number of synapses per surface unit area.

## O=C(O)CCC(=O)C(=O)O [AKG, alpha-ketoglutaric acid]
[1]
  hippocampal neurogenesis (number of nestin-positive neurons per 1 mm of pyramidal layer length in hippocampal CA1 area): increased hippocampal neurogenesis; also recorded: increase neurogenesis
[2]
  cognition (percentage of spontaneous alterations in T-maze test): improved cognition
[3]; hippocampal CA1, compared to control old animals (FIG. 6A)
  number of SVs (synaptic vesicles) per presynaptic terminal: increased
[3]; hippocampal CA1, old gerbils after long time treatment, old control three times lower than young (FIG. 4)
  number of synaptic terminals (synaptic contacts) per unit area (100 μm^2), increased to: 55%
[3]; hippocampal synapses, old gerbils (FIG. 7)
  distance from a synaptic vesicle to the active zone (AZD): increase of a distance from a vesicle to the active zone
